Data reported in PMC8395690, “Entropy–Entropy Compensation between the Protein, Ligand, and Solvent Degrees of Freedom Fine-Tunes Affinity in Ligand Binding to Galectin-3C” (JACS Au, 2021).
Like-named read-outs stand apart in the source and are kept apart here.

Biological target: T1, galectin-3C (carbohydrate recognition domain of galectin-3) (Homo sapiens, UniProt P17931)
T1 construct: gene LGALS3; carbohydrate recognition domain of galectin-3 (residues 113–250)
Experiment: ITC; X-ray crystal structure; NMR titration
Type: binding

T1 sequence (P17931 113-250): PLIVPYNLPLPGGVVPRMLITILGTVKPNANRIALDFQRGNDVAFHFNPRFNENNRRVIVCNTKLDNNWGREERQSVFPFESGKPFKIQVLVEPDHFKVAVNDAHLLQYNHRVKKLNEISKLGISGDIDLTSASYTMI

Row | Structure (SMILES) | Kd (read-out: Kd ITC (10^-6 M) ^a) [µM] | Kd [µM]
1 | OC[C@H]1O[C@@H](S[C@@H]2O[C@H](CO)[C@@H](O)[C@H](O)[C@H]2O)[C@H](O)[C@@H](n2cc(-c3ccc(F)cc3)nn2)[C@H]1O [P] | 2.46 | –
2 | OC[C@H]1O[C@@H](S[C@@H]2O[C@H](CO)[C@@H](O)[C@H](O)[C@H]2O)[C@H](O)[C@@H](n2cc(-c3ccccc3F)nn2)[C@H]1O [O] | – | 7.21
3 | OC[C@H]1O[C@@H](S[C@@H]2O[C@H](CO)[C@@H](O)[C@H](O)[C@H]2O)[C@H](O)[C@@H](n2cc(-c3cccc(F)c3)nn2)[C@H]1O [M] | 2 | –
